Measurements reported in US7235572B2, “Thiazolyl-indole derivatives, their manufacture and use as pharmaceutical agents” (Hoffman-La Roche Inc., priority 2003, dated 2007).

Experiments:
PPARγ = molecular target: T1, PPARγ (Mus musculus, UniProt P37238); assay: PPARγ radioligand binding assay (scintillation proximity, GST-PPARγ-LBD); conditions: SPA radioligand binding
T1 construct: PPARγ (aa 174 to 476); made in house; host or cells: E. coli BL21 (pLysS)
T1 sequence (P37238 204-505): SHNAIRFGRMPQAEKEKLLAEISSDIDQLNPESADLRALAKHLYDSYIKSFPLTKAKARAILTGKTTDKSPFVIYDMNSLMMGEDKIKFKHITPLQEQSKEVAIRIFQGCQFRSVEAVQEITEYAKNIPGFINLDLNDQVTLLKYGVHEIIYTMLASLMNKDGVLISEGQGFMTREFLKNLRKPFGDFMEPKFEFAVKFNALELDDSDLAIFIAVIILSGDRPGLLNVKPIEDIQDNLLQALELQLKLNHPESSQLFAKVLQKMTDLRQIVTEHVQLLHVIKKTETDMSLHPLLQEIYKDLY
Text: (§1) Background information on the performed assays can be found in: Nichols J S et al. “Development of a scintillation proximity assay for peroxisome proliferator-activated receptor gamma ligand binding domain”, (1998) Anal. Biochem. 257: 112–119.
(§2) Full-length cDNA clones for humans PPARδ and PPARα and mouse PPARγ were obtained by RT-PCR from human adipose and mouse liver cRNA, respectively, cloned into plasmid vectors and verified by DNA sequencing. Bacterial and mammalian expression vectors were constructed to produce glutathione-s-transferase (GST) and Gal4 DNA binding domain proteins fused to the ligand binding domains (LBD) of PPARδ (aa 139 to 442), PPARγ (aa 174 to 476) and PPARα (aa 167 to 469). To accomplish this, the portions of the cloned sequences encoding the LBDs were amplified from the full-length clones by PCR and then subcloned into the plasmid vectors. Final clones were verified by DNA sequence analysis. […]
(§3) PPARγ receptor binding was assayed in TKE50 (50 mM Tris-HCl, pH 8, 50 mM KCl, 2 mM EDTA, 0.1 mg/ml fatty acid-free BSA and 10 mM DTT). […] All binding assays were performed in 96 well plates and the amount of bound ligand measured on a Packard TopCount using OptiPlates (Packard). Nonspecific binding was determined in the presence of 10^−4 M unlabelled compound. […]

PPARδ = molecular target: T2, PPARδ (Homo sapiens, UniProt Q03181); assay: PPARδ radioligand binding assay (scintillation proximity, GST-PPARδ-LBD); conditions: SPA radioligand binding
T2 construct: PPARδ (aa 139 to 442); made in house; host or cells: E. coli BL21 (pLysS)
T2 sequence (Q03181 139-441 limits assumed): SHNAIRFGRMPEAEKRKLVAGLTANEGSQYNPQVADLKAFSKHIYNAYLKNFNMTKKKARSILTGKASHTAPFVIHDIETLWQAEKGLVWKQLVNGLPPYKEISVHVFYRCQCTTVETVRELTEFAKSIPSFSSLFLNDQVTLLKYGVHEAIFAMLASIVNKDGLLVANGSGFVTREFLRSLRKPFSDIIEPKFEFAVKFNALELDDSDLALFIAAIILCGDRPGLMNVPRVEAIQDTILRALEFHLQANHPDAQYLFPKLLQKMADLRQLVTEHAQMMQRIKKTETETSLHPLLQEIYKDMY
Text: as §1, §2
PPARδ receptor binding was assayed in HNM10 (50 mM Hepes, pH 7.4, 10 mM NaCl, 5 mM MgCl2, 0.15 mg/ml fatty acid-free BSA and 15 mM DTT). […] Radioligand was added and the reaction incubated at RT for 1 h and scintillation proximity counting performed in the presence of test compounds was determined. All binding assays were performed in 96 well plates and the amount of bound ligand was measured on a Packard TopCount using OptiPlates (Packard). […]

PPARα = molecular target: T3, PPARα (Homo sapiens, UniProt Q07869); assay: PPARα radioligand binding assay (scintillation proximity, GST-PPARα-LBD); conditions: SPA radioligand binding
T3 construct: PPARα (aa 167 to 469); made in house; host or cells: E. coli BL21 (pLysS)
T3 sequence (Q07869 167-468 limits assumed): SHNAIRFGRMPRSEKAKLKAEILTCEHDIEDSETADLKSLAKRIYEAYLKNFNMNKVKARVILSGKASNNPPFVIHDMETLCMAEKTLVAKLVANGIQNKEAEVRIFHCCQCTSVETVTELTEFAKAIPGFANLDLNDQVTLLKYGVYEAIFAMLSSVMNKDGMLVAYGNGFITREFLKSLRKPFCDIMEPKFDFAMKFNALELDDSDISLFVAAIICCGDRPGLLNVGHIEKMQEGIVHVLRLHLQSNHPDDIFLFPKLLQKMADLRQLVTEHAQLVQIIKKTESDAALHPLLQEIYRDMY
Text: as §1, §2
as §3, with “PPARα” for “PPARγ”

| IC50 (PPARγ) | IC50 (PPARδ) | IC50 (PPARα) | melting point | SMILES |
| --- | --- | --- | --- | --- |
| ≥ 10000 nM | 24 nM | 2230 nM |  | Cc1nc(-c2ccc(C(F)(F)F)cc2)sc1C(C)Oc1ccc2ccn(CC(=O)O)c2c1 (racemic) [Example 2, [rac]-(6-{1-[4-methyl-2-(4-trifluoromethyl-phenyl)-thiazol-5-yl]-ethoxy}-indol-1-yl)-acetic acid] |
| ≥ 10000 nM | 42 nM | 227 nM |  | Cc1nc(-c2ccc(C(F)(F)F)cc2)sc1CCCOc1cccc2c1ccn2CC(=O)O [Example 8, (4-{3-[4-methyl-2-(4-trifluoromethyl-phenyl)-thiazol-5-yl]-propoxy}-indol-1-yl)-acetic acid] |
|  |  |  | 187 to 188 °C (dec.) | Cc1nc(-c2ccc(C(F)(F)F)cc2)sc1COc1ccc2c(c1)cc(C)n2CC(=O)O [Example 32, {2-methyl-5-[4-methyl-2-(4-trifluoromethyl-phenyl)-thiazol-5-ylmethoxy]-indol-1-yl}-acetic acid] |
